From publication PMC5704913 (Toxicology and applied pharmacology, 2017)
“Also recorded” adds a separate entry of the source.

Key:
H2O2 scavenging assay = assay type: biochemical; settings: read-out: H2O2 IC50; concentration that scavenged 50% of H2O2; 50 µM H2O2, 1 minute
[1] = system: respiring brain mitochondria; settings: ref Castello et al., 2008; cited from earlier work
MPTP-treated mice = settings: oral administration; ref Liang et al., 2007; cited from earlier work
SOD activity assay = assay type: biochemical; settings: unit = amount that inhibits one-half the formation of adrenochrome at pH 10.2
[2] = Brain manganese levels by ICPMS after 7 days daily dosing; assay type: in vivo, C57BL/6 mice; settings: 15 mg/kg i.p. daily for 7 days
C57BL/6 mice = assay: Open field test and accelerated rotarod test; assay type: in vivo; settings: 15 mg/kg i.p. daily for 7 days

Compound	IC50 (H2O2 scavenging assay) [nM]	H2O2 scavenging in respiring brain mitochondria (in words) [1]	effect on MPTP-induced neurotoxicity (in words) (MPTP-treated mice)	SOD Activity (SOD activity assay) [U/mg]	brain manganese levels vs vehicle (in words) [2]	increase of brain manganese levels [2]	neurobehavioral changes (open field, rotarod) vs vehicle (C57BL/6 mice)
COC(=O)c1c2nc(c(C(F)(F)F)c3ccc([n-]3)c(C(=O)OC)c3nc(c(C(F)(F)F)c4ccc1[n-]4)C=C3)C=C2.[Cl-].[Mn+3] [AEOL 11207]	104	potent H2O2 scavengers	inhibited MPTP-induced neurotoxicity	124			
[Cl][Mn][Cl] [MnCl2]					increased brain manganese levels significantly	~ 10 fold	significant deficit in movement; also recorded: significant rotarod deficit
